Results published in PubChem BioAssay AID1963445 (Molecular Pharmacology Branch, DTP, NCI, 2024).

Test system: MCF7 complex spheroid growth, % test/control
Assay: Anticancer human tumor MCF7 cell line growth inhibition [Asc];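 note: spheroids exposed to compounds for 7 days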;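 for viability, T/C: 100% = DMSO vehicle control wells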
Conditions: for IC50: curve of first compound; for viability, T/C: stronger effect = lower value
Procedure, shortened: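 Concentration series start at each agent's clinical Cmax, or at 10 microM when none is established, and drop in half-log steps; agents are applied alone or together to complex spheroids built with HUVEC and hMSC.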

`CNC(C)C(=O)NC1CN(S(=O)(=O)c2cccc(S(=O)(=O)N3CCC4CCC(C(=O)NC(c5ccccc5)c5ccccc5)N4C(=O)C(NC(=O)C(C)NC)C3)c2)CCC2CCC(C(=O)NC(c3ccccc3)c3ccccc3)N2C1=O` (centres undefined) + Cc1c(S(C)(=O)=O)c(-c2cc(F)cc(N3CCN(c4ccc(NS(=O)(=O)c5ccc(NC(CCN6CCC(C(=O)OCCCP(=O)(O)O)CC6)CSc6ccccc6)c(S(=O)(=O)C(F)(F)F)c5)cc4)CC3)c2)c(-c2ccc(Cl)cc2)n1C(C)C was tested. Which IC50 (second compound 0.0316 µM) did it give?
Its IC50 is 5.15 nM.

What about the IC50 (second compound 0.1 µM) of the same compound?
The IC50 was 6.44 nM.

What about the IC50 (second compound 0.316 µM) of the same compound?
Its IC50 is 4.92 nM.

What about the IC50 (second compound 1 µM) of the same compound?
The IC50 was 5.56 nM.

And the IC50 (second compound 3.16 µM)?
Its IC50 is under 3.16 nM.

And the IC50 (second compound 10 µM)?
The IC50 was 4.17 nM.

What about the viability, T/C (second compound 0.0316 µM, first compound 0.00316 µM) of the same compound?
Its viability, T/C is 73.3%.

What about the viability, T/C (second compound 0.0316 µM, first compound 0.01 µM) of the same compound?
Its viability, T/C is 17.6%.

And the viability, T/C (second compound 0.0316 µM, first compound 0.0316 µM)?
Its viability, T/C is 15.6%.

And the viability, T/C (second compound 0.0316 µM, first compound 0.1 µM)?
Its viability, T/C is 18.6%.

What about the viability, T/C (second compound 0.0316 µM, first compound 0.316 µM) of the same compound?
The viability, T/C was 16.3%.

What about the viability, T/C (second compound 0.0316 µM, first compound 1 µM) of the same compound?
Its viability, T/C is 20.2%.

And the viability, T/C (second compound 0.1 µM, first compound 0.00316 µM)?
Its viability, T/C is 96.3%.

What about the viability, T/C (second compound 0.1 µM, first compound 0.01 µM) of the same compound?
The viability, T/C was 21.4%.

What about the viability, T/C (second compound 0.1 µM, first compound 0.0316 µM) of the same compound?
The viability, T/C was 17.3%.

And the viability, T/C (second compound 0.1 µM, first compound 0.1 µM)?
The viability, T/C was 17%.

What about the viability, T/C (second compound 0.1 µM, first compound 0.316 µM) of the same compound?
Its viability, T/C is 17.7%.

And the viability, T/C (second compound 0.1 µM, first compound 1 µM)?
The viability, T/C was 16.9%.

What about the viability, T/C (second compound 0.316 µM, first compound 0.00316 µM) of the same compound?
The viability, T/C was 65.9%.

What about the viability, T/C (second compound 0.316 µM, first compound 0.01 µM) of the same compound?
Its viability, T/C is 25.1%.

And the viability, T/C (second compound 0.316 µM, first compound 0.0316 µM)?
Its viability, T/C is 16.4%.

And the viability, T/C (second compound 0.316 µM, first compound 0.1 µM)?
The viability, T/C was 19%.

And the viability, T/C (second compound 0.316 µM, first compound 0.316 µM)?
The viability, T/C was 19.2%.

What about the viability, T/C (second compound 0.316 µM, first compound 1 µM) of the same compound?
The viability, T/C was 18.8%.

What about the viability, T/C (second compound 1 µM, first compound 0.00316 µM) of the same compound?
Its viability, T/C is 78.9%.

What about the viability, T/C (second compound 1 µM, first compound 0.01 µM) of the same compound?
The viability, T/C was 20%.

What about the viability, T/C (second compound 1 µM, first compound 0.0316 µM) of the same compound?
Its viability, T/C is 18.6%.

And the viability, T/C (second compound 1 µM, first compound 0.1 µM)?
The viability, T/C was 19.8%.

What about the viability, T/C (second compound 1 µM, first compound 0.316 µM) of the same compound?
The viability, T/C was 17.4%.

What about the viability, T/C (second compound 1 µM, first compound 1 µM) of the same compound?
The viability, T/C was 15.9%.

And the viability, T/C (second compound 3.16 µM, first compound 0.00316 µM)?
The viability, T/C was 37%.

And the viability, T/C (second compound 3.16 µM, first compound 0.01 µM)?
Its viability, T/C is 19.1%.

What about the viability, T/C (second compound 3.16 µM, first compound 0.0316 µM) of the same compound?
Its viability, T/C is 18.3%.

And the viability, T/C (second compound 3.16 µM, first compound 0.1 µM)?
The viability, T/C was 22.8%.

And the viability, T/C (second compound 3.16 µM, first compound 0.316 µM)?
Its viability, T/C is 20.4%.

And the viability, T/C (second compound 3.16 µM, first compound 1 µM)?
The viability, T/C was 20.1%.

And the viability, T/C (second compound 10 µM, first compound 0.00316 µM)?
The viability, T/C was 56%.

What about the viability, T/C (second compound 10 µM, first compound 0.01 µM) of the same compound?
The viability, T/C was 31.6%.

And the viability, T/C (second compound 10 µM, first compound 0.0316 µM)?
Its viability, T/C is 23.8%.

What about the viability, T/C (second compound 10 µM, first compound 0.1 µM) of the same compound?
The viability, T/C was 21.7%.

What about the viability, T/C (second compound 10 µM, first compound 0.316 µM) of the same compound?
Its viability, T/C is 21.5%.

What about the viability, T/C (second compound 10 µM, first compound 1 µM) of the same compound?
Its viability, T/C is 24%.

For `Cc1nc(N2CCC3(CC2)COC(C)C3N)c(CO)nc1Sc1ccnc(N)c1Cl` (centres undefined) + Cc1c(S(C)(=O)=O)c(-c2cc(F)cc(N3CCN(c4ccc(NS(=O)(=O)c5ccc(NC(CCN6CCC(C(=O)OCCCP(=O)(O)O)CC6)CSc6ccccc6)c(S(=O)(=O)C(F)(F)F)c5)cc4)CC3)c2)c(-c2ccc(Cl)cc2)n1C(C)C, which IC50 (second compound 0.0316 µM) is on record?
The IC50 was 736 nM.

And the IC50 (second compound 0.1 µM)?
Its IC50 is 787 nM.

What about the IC50 (second compound 0.316 µM) of the same compound?
Its IC50 is 491 nM.

And the IC50 (second compound 1 µM)?
Its IC50 is 534 nM.

And the IC50 (second compound 3.16 µM)?
Its IC50 is 668 nM.

And the IC50 (second compound 10 µM)?
Its IC50 is 789 nM.

And the viability, T/C (second compound 0.0316 µM, first compound 0.00949 µM)?
Its viability, T/C is 91.3%.

What about the viability, T/C (second compound 0.0316 µM, first compound 0.03 µM) of the same compound?
Its viability, T/C is 92.1%.

And the viability, T/C (second compound 0.0316 µM, first compound 0.0949 µM)?
Its viability, T/C is 90%.

And the viability, T/C (second compound 0.0316 µM, first compound 0.3 µM)?
Its viability, T/C is 88.8%.

And the viability, T/C (second compound 0.0316 µM, first compound 0.949 µM)?
The viability, T/C was 39.1%.

What about the viability, T/C (second compound 0.0316 µM, first compound 3 µM) of the same compound?
Its viability, T/C is 14.7%.

And the viability, T/C (second compound 0.1 µM, first compound 0.00949 µM)?
Its viability, T/C is 90.6%.

And the viability, T/C (second compound 0.1 µM, first compound 0.03 µM)?
The viability, T/C was 79.7%.

And the viability, T/C (second compound 0.1 µM, first compound 0.0949 µM)?
Its viability, T/C is 73.7%.

What about the viability, T/C (second compound 0.1 µM, first compound 0.3 µM) of the same compound?
The viability, T/C was 80%.

And the viability, T/C (second compound 0.1 µM, first compound 0.949 µM)?
The viability, T/C was 44.2%.

And the viability, T/C (second compound 0.1 µM, first compound 3 µM)?
Its viability, T/C is 14.9%.

What about the viability, T/C (second compound 0.316 µM, first compound 0.00949 µM) of the same compound?
Its viability, T/C is 98.3%.

And the viability, T/C (second compound 0.316 µM, first compound 0.03 µM)?
Its viability, T/C is 84.2%.

What about the viability, T/C (second compound 0.316 µM, first compound 0.0949 µM) of the same compound?
The viability, T/C was 75.2%.

What about the viability, T/C (second compound 0.316 µM, first compound 0.3 µM) of the same compound?
The viability, T/C was 72.8%.

What about the viability, T/C (second compound 0.316 µM, first compound 0.949 µM) of the same compound?
The viability, T/C was 19.7%.

And the viability, T/C (second compound 0.316 µM, first compound 3 µM)?
Its viability, T/C is 15.5%.

And the viability, T/C (second compound 1 µM, first compound 0.00949 µM)?
Its viability, T/C is 80.5%.

What about the viability, T/C (second compound 1 µM, first compound 0.03 µM) of the same compound?
Its viability, T/C is 84.6%.

What about the viability, T/C (second compound 1 µM, first compound 0.0949 µM) of the same compound?
Its viability, T/C is 85.7%.

And the viability, T/C (second compound 1 µM, first compound 0.3 µM)?
The viability, T/C was 81.2%.

And the viability, T/C (second compound 1 µM, first compound 0.949 µM)?
Its viability, T/C is 18.9%.

And the viability, T/C (second compound 1 µM, first compound 3 µM)?
Its viability, T/C is 15.3%.

And the viability, T/C (second compound 3.16 µM, first compound 0.00949 µM)?
The viability, T/C was 98.3%.

What about the viability, T/C (second compound 3.16 µM, first compound 0.03 µM) of the same compound?
The viability, T/C was 88.4%.

What about the viability, T/C (second compound 3.16 µM, first compound 0.0949 µM) of the same compound?
Its viability, T/C is 89.5%.

What about the viability, T/C (second compound 3.16 µM, first compound 0.3 µM) of the same compound?
The viability, T/C was 80.6%.

What about the viability, T/C (second compound 3.16 µM, first compound 0.949 µM) of the same compound?
The viability, T/C was 36.6%.

And the viability, T/C (second compound 3.16 µM, first compound 3 µM)?
The viability, T/C was 20.5%.

What about the viability, T/C (second compound 10 µM, first compound 0.00949 µM) of the same compound?
The viability, T/C was 247%.

And the viability, T/C (second compound 10 µM, first compound 0.03 µM)?
The viability, T/C was 221%.

And the viability, T/C (second compound 10 µM, first compound 0.0949 µM)?
Its viability, T/C is 202%.

What about the viability, T/C (second compound 10 µM, first compound 0.3 µM) of the same compound?
Its viability, T/C is 176%.

What about the viability, T/C (second compound 10 µM, first compound 0.949 µM) of the same compound?
Its viability, T/C is 26%.

And the viability, T/C (second compound 10 µM, first compound 3 µM)?
The viability, T/C was 26%.
